Test results reported in ChEMBL document CHEMBL1201862, “PubChem BioAssay data set” (2004).
Blank lines part the entries; values can stand above or below the compound they belong to. Calls of active or inactive are those of the source.

Tests used:
[1] = cells; type: functional, cell-based
[2] = cells; type: functional, cell-based; remark: listed apart in the source
[3] = molecular target: T1, Fatty acid synthase (Homo sapiens, UniProt P49327); experiment: inhibition of human FAS-TE enzyme activity – biochemical, kinetic fluorescence intensity, dose response (AID 624326); type: functional;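 further: rate of fluorescence rise from hydrolysis of a fluorogenic O-methyl fluorescein ester substrate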
[4] = molecular target: T1, Fatty acid synthase; experiment: inhibition of human FAS-TE enzyme activity – biochemical, endpoint fluorescence intensity, uHTS hits, dose response (AID 624327); type: functional;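 further: fluorescence from hydrolysis of an O-methyl fluorescein acyl ester substrate by the enzyme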
[5] = molecular target: Heat shock protein HSP 90-alpha (Homo sapiens, UniProt P07900); type: functional, organism-based
[6] = molecular target: Large T antigen (Simian virus 40, UniProt P03070); type: functional, Betapolyomavirus macacae;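 further: Confirmatory-stage PubChem screen for compounds that inhibit SV40 T antigen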
[7] = molecular target: Cytochrome P450 3A4 (Homo sapiens, UniProt P08684); details: Potency;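 further: confirmatory qHTS run detecting inhibitors and substrates of CYP3A4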
[8] = molecular target: Genome polyprotein (dengue virus type 2, UniProt P29990); experiment: flavivirus cap methylation enzyme inhibition – biochemical, confirmation dose response, primary screen (AID 588689); type: functional
[9] = molecular target: T2, Small ubiquitin-related modifier 1 (Homo sapiens, UniProt P63165); experiment: SUMO1 protein-protein binding blockers, potency – biochemical, FRET, dose response (AID 624383); type: functional; details: read-out: IC50_Mean
[10] = molecular target: T2, Small ubiquitin-related modifier 1; experiment: SUMO1 protein interaction blockers, potency – biochemical, fluorescence polarization, uHTS hits, dose response (AID 624382); type: functional; details: read-out: IC50_Mean
[11] = molecular target: FAD-linked sulfhydryl oxidase ALR (Homo sapiens, UniProt P55789); experiment: ALR-catalysed DTT oxidation blockers – biochemical, H2O2 detection, luminescence, cherry-pick, dose response (AID 493248)
[12] = molecular target: T3, Polyadenylate-binding protein 1 (Homo sapiens, UniProt P11940); experiment: MLLE binding blockers, Cy5 peptide tracer – biochemical, fluorescence polarization, Cy5-PAM2 peptide, secondary, miRNA deadenylation inhibitor project, dose response (AID 602260); type: functional; details: read-out: IC50_Mean
[13] = molecular target: T3, Polyadenylate-binding protein 1; experiment: MLLE domain peptide-binding blockers, IC50 – biochemical, fluorescence polarization, FITC-PAM2 peptide, dose response (AID 602259); type: functional; details: read-out: IC50_Mean
[14] = molecular target: T4, Protein skinhead-1 (Caenorhabditis elegans, UniProt P34707); type: functional
T4 sequence (P34707 whole entry): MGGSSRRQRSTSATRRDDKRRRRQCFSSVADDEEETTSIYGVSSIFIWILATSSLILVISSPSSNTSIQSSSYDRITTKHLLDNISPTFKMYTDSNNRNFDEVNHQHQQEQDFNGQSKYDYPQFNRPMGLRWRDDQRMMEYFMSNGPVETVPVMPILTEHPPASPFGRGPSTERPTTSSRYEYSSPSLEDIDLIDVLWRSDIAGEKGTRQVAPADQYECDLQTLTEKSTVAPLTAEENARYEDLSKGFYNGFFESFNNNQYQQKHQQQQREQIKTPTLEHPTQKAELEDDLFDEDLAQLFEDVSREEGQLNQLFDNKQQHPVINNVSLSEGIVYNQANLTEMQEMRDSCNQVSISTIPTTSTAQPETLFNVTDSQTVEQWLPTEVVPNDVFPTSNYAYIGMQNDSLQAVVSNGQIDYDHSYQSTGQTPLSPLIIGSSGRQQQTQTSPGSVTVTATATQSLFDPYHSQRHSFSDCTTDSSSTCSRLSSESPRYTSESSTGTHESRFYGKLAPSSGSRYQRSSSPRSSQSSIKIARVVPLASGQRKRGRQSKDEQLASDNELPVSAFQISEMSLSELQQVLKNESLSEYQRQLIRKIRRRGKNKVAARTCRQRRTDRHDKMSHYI

[15] = viability of uninfected HEp-2 cells – cell-based, HTS, cytotoxicity control for RSV inhibitor project, dose response (AID 2410); type: functional; details: human respiratory syncytial virus
[16] = molecular target: T5, Carboxy-terminal domain RNA polymerase II polypeptide A small phosphatase 1 (Homo sapiens, UniProt Q9GZU7); experiment: CTDSP1 inhibitors, concentration-response, biochemical, absorbance readout, ultra-high-throughput screen actives (AID 540297); type: functional
T5 sequence (Q9GZU7 whole entry): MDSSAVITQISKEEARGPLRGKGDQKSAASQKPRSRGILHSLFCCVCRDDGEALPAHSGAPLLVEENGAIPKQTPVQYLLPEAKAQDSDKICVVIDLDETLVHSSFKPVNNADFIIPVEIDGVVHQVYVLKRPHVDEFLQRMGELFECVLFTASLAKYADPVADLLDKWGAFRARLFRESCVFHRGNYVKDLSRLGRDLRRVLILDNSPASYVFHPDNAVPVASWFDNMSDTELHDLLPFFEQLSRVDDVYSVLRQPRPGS

[17] = molecular target: Photoreceptor-specific nuclear receptor (Homo sapiens, UniProt Q9Y5X4); type: functional, cell-based;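 further: CHO-S cells with Gal4-NCOR and VP16-NR2E3 two-hybrid luciferase reporter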
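Wherever EC50 is given: agonist potency from rise in intracellular calcium fluorescence.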

T1 sequence (P49327 whole entry): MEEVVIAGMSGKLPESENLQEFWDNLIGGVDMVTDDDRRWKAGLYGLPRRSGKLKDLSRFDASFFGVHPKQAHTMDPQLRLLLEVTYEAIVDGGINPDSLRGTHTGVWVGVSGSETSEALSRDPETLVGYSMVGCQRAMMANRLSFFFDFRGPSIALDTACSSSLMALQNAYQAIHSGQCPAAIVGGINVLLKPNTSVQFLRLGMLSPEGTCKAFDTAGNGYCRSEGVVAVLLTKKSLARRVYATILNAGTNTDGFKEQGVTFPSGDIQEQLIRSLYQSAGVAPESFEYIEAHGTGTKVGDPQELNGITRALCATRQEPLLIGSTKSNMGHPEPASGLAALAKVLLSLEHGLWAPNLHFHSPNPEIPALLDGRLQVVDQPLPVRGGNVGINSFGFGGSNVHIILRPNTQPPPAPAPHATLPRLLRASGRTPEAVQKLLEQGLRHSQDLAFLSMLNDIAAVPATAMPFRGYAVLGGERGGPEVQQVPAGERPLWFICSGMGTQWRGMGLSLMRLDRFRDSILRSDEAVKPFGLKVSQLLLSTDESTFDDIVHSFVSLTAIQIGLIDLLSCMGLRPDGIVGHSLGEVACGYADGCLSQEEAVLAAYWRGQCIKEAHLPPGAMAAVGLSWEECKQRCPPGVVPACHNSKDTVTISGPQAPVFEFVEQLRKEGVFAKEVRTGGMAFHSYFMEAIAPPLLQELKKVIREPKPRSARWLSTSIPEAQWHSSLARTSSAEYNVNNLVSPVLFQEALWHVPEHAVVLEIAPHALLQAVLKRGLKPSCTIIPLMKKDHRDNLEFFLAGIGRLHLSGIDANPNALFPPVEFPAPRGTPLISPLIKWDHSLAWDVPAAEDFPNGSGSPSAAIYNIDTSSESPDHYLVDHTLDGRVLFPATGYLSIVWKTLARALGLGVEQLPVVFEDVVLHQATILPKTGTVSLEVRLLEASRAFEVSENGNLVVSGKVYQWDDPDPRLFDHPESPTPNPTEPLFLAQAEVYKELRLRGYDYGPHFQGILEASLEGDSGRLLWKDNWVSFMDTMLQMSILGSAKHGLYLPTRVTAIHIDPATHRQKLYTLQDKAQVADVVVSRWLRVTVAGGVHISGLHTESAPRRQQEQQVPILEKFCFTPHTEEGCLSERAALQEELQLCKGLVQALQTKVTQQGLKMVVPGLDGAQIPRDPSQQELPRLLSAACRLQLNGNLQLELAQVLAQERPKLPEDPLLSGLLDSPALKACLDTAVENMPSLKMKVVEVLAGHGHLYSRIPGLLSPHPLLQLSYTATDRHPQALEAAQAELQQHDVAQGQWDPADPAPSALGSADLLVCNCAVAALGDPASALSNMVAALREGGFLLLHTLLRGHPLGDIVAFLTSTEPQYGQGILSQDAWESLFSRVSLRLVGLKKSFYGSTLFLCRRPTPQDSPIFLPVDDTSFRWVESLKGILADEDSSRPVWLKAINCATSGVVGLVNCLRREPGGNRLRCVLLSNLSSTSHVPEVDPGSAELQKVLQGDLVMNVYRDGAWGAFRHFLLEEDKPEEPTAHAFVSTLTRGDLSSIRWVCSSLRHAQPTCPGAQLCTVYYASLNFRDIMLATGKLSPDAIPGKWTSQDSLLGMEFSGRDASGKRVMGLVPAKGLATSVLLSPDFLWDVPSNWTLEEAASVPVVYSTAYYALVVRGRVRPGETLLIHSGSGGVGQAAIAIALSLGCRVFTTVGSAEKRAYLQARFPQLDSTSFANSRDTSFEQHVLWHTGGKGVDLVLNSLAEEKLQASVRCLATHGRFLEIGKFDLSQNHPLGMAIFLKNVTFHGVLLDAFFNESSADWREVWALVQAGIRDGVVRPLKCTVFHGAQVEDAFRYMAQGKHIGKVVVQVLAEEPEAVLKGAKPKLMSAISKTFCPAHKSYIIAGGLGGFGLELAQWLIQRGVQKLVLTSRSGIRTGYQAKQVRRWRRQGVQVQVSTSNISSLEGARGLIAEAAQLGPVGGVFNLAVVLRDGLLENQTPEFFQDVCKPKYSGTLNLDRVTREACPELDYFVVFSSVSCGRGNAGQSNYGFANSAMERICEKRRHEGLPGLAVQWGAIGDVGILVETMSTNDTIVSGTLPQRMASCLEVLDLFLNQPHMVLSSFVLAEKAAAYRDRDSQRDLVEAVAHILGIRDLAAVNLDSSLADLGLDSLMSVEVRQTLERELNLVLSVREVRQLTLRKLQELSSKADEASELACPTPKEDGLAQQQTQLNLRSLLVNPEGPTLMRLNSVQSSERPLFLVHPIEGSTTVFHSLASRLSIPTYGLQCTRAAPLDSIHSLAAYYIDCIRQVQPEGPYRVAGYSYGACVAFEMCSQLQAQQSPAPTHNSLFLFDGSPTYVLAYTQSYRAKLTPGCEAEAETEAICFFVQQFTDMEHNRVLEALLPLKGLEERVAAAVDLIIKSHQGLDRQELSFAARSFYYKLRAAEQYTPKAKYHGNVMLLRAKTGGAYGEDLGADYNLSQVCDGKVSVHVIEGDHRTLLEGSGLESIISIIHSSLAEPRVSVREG
T2 sequence (P63165 whole entry): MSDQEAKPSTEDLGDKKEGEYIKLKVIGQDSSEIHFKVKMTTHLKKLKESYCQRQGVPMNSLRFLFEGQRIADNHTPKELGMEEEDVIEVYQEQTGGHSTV
Sequence of Cytochrome P450 3A4 (P08684 whole entry): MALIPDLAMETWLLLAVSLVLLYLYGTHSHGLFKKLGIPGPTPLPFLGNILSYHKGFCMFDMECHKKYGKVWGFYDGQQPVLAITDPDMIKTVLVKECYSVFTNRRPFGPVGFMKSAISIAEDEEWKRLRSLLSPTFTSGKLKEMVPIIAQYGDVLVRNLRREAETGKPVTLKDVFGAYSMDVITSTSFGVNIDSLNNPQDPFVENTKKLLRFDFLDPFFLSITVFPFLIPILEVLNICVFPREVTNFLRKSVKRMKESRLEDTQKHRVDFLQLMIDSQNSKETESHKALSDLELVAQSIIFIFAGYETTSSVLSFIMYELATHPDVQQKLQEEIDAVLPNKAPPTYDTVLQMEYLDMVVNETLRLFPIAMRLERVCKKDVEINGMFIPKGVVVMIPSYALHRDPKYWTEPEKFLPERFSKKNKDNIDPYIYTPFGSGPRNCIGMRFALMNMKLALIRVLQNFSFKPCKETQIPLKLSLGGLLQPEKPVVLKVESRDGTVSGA
Sequence of Large T antigen (P03070 whole entry): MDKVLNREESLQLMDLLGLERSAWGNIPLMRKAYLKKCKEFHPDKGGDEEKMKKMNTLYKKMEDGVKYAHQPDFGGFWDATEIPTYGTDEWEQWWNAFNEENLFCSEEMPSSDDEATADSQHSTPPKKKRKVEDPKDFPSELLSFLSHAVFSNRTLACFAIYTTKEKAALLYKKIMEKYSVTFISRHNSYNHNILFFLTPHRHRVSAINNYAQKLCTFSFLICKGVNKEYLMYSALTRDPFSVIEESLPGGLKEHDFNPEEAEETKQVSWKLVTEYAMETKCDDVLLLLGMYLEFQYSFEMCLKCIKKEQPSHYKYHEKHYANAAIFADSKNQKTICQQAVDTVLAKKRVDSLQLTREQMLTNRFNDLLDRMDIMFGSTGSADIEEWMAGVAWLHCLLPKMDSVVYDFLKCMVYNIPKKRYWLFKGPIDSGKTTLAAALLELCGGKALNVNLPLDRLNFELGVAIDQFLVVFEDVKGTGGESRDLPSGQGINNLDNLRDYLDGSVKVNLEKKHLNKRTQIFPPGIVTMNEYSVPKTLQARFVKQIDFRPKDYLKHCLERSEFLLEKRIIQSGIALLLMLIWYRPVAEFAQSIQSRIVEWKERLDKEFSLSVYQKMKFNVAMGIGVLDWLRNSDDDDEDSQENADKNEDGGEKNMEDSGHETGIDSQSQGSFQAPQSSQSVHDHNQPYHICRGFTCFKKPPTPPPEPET
T3 sequence (P11940 whole entry, the tested form may be a part): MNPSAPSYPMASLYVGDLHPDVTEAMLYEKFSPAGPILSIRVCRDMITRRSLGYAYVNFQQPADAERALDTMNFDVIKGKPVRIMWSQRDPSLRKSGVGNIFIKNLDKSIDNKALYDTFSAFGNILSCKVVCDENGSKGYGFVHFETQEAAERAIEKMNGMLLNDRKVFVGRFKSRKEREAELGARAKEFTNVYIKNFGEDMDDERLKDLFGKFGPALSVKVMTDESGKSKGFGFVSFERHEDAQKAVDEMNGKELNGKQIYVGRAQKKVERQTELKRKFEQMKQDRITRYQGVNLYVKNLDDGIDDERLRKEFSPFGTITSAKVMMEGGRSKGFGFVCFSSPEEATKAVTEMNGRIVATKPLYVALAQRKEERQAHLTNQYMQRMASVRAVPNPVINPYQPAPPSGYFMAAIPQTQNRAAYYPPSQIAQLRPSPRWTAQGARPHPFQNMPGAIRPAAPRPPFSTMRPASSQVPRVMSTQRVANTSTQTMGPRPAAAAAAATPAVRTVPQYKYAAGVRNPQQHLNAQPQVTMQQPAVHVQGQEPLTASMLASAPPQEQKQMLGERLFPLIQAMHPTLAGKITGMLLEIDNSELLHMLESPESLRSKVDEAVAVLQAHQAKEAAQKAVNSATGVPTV
Sequence of Photoreceptor-specific nuclear receptor (Q9Y5X4 whole entry, the tested form may be a part): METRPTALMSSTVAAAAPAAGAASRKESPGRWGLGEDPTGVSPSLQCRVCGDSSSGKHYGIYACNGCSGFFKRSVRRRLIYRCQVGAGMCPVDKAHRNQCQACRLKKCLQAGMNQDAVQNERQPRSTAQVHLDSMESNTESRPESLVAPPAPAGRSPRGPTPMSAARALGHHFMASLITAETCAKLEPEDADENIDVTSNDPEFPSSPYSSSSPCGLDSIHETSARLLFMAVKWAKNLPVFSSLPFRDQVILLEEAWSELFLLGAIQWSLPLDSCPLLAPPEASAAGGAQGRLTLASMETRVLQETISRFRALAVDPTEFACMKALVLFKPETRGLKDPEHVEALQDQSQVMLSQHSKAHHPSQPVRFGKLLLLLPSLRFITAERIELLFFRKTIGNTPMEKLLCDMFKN
Sequence of FAD-linked sulfhydryl oxidase ALR (P55789 whole entry): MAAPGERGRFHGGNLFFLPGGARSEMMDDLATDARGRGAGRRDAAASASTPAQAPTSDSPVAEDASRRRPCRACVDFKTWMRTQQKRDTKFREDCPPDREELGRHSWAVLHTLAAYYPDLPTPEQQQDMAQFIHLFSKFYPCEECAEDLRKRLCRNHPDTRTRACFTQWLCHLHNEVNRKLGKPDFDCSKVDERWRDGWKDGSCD

IC50 [3]: 9.84 µM (active)
IC50 [4]: 8.01 µM (active)
Structure (SMILES): CCc1nc2c(OCc3ccc(Cl)cc3)cccn2c1N(C=O)Cc1ccc(OC)cc1

AC50 [5]: 6.97 µM (active)
Structure (SMILES): Oc1ccc(-c2nc3ccc4ccccc4c3c3c2CCC3)cc1O

IC50 [3]: 26.4 µM (inactive)
IC50 [4]: 18.8 µM (active)
Structure (SMILES): COc1ccc(CN(Cc2cc3cccc(C)c3n3nnnc23)C(=O)N2CCOCC2)cc1

AC50 [7]: 31.6 µM (inconclusive)
Structure (SMILES): Cc1ccc2nc(-c3ccc(N)cc3)sc2c1S(=O)(=O)O

IC50 [6]: 7.48 µM (active)
Structure (SMILES): COc1ccc(NC2CCCN(C(=O)CSc3ccccc3)C2)cc1 (stereo not drawn)

AC50 [7]: 6.31 µM (inconclusive)
Structure (SMILES): COc1ccc(CNC(=O)C(C)Cc2ccccc2)cc1O (stereo not drawn)

AC50 [7]: 15.8 µM (inconclusive)
Structure (SMILES): COC(=O)c1ccc(CN2[C@@H]3C[C@@H](O)CC[C@@H]3C[C@H]2C(=O)OC)cc1

AC50 [11]: 4.37 µM (active)
IC50 [12]: > 66 µM (inactive)
IC50 [13]: > 66 µM (inactive)
IC50 [14]: > 100 µM (inactive)
Structure (SMILES): CC(C)(C)NC(=O)CN(C(=O)CCN1CCCc2ccccc21)C(C)(C)C

IC50 [3]: 7.56 µM (active)
IC50 [4]: 10.9 µM (active)
Structure (SMILES): CC(C)OC(=O)[C@H]1[C@H](c2ccc(Cl)cc2)[C@@](C#N)(C(N)=O)[C@@H]2C=CC(C(N)=O)=CN21

IC50 [17]: 1.47 µM (active)
Structure (SMILES): CC(=O)N1c2ccc(S(=O)(=O)N3CCC(C(=O)Nc4cccc(Cl)c4)CC3)cc2CC1C (stereo not drawn)

Further lines, the compound ahead of its results:

Structure (SMILES): O=C(NCCc1ccccc1)C1CCN(C(=O)c2ccc([N+](=O)[O-])cc2)CC1
EC50 [1]: > 29.9 µM (inactive)
IC50 [2]: > 29.9 µM (inactive)

Structure (SMILES): CC(CNC(=O)C1CCCCC1C(=O)O)c1ccccc1 (stereo not drawn)
EC50 [1]: > 29.9 µM (inactive)
IC50 [2]: > 29.9 µM (inactive)

Structure (SMILES): O=[N+]([O-])c1ccc2c(c1N1CCCCC1)=NC1(CCCCC1)[N+]=2[O-]
IC50 [6]: > 100 µM (active)

Structure (SMILES): N#Cc1c(N)sc(=S)c2c1CCCCC2
IC50 [6]: 46.4 µM (active)
IC50 [8]: > 100 µM (active)

Structure (SMILES): CCC(CO)Oc1cc(NC(=O)c2ccccc2C)c2ncn(C(C)C)c2c1 (stereo not drawn)
IC50 [9]: 17.6 µM (active)
IC50 [10]: > 66.6 µM (inactive)

Structure (SMILES): O=C(C[C@H]1C[C@H](C(=O)N2CCOCC2)[C@@]2(CCC3CCCC3)c3[nH]c4cc(-c5ccco5)ccc4c3CCN2C1=O)NCCN1CCOCC1
IC50 [3]: 3.76 µM (active)
IC50 [4]: 6.62 µM (active)

Structure (SMILES): Cn1c(=O)c2nc(Nc3ccccc3)[nH]c2n(C)c1=O
EC50 [1]: > 29.9 µM (inactive)
IC50 [2]: > 29.9 µM (inactive)

Structure (SMILES): Cc1ccc(Cl)cc1Nc1nc(-c2sc(NC(=O)C(C)(C)C)nc2C)cs1
IC50 [9]: 9.1 µM (active)
IC50 [10]: > 66.6 µM (inactive)
CC50 [15]: 21.4 µM (active)

Structure (SMILES): Nc1c(C(=O)OCC(=O)Nc2cccc([N+](=O)[O-])c2)[nH]c(=O)[nH]c1=O
IC50 [16]: 7.55 µM (active)
